According to ChEMBL document CHEMBL1155587, “Spasmolytic constituents from Eucalyptus camaldulensis var. obtusa leaves” (2000):

Assays:
Jejunum [1] = test: Spasmolytic activity in rabbit jejunum assessed as relaxation of K+-induced muscle contraction at 10 ug/ml relative to calcium; type: functional, Oryctolagus cuniculus
Jejunum [2] = test: Spasmolytic activity in rabbit jejunum assessed as relaxation of K+-induced muscle contraction at 30 ug/ml relative to calcium; type: functional, Oryctolagus cuniculus

| Structure (SMILES) | Ratio (Jejunum [1]) | Ratio (Jejunum [2]) |
| --- | --- | --- |
| C[C@H]1[C@H](C)CC[C@@]23CC[C@]4(C)[C@@](C=C[C@@H]5[C@@]6(C)CC[C@H](OC=O)C(C)(C)[C@@H]6CC[C@]54C)(OC2=O)[C@H]13 [CAMALDULIN] | 2.03 | 3.47 |
| CC(=O)O[C@H]1CC[C@]2(C)[C@H]3C=C[C@]45OC(=O)[C@@]6(CC[C@@H](C)[C@H](C)[C@H]64)CC[C@@]5(C)[C@]3(C)CC[C@H]2C1(C)C | 6.2 | 17.51 |
